Measured values: PubChem BioAssay (NCI)
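A five-concentration, 48-hour dose response in 96-well plates underlies each endpoint, interpolated linearly between surrounding concentrations. GI50 = concentration required for 50% inhibition of growth. At the TGI there is no net growth.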

Tests used:
Assay in all cases: NCI anticancer screen, dose series, 48 h
IGROV1 ovarian = test system: IGROV1 ovarian
NCI/ADR-RES ovarian = test system: NCI/ADR-RES ovarian
OVCAR-4 ovarian = test system: OVCAR-4 ovarian
UO-31 renal = test system: UO-31 renal
OVCAR-5 ovarian = test system: OVCAR-5 ovarian
SK-MEL-28 melanoma = test system: SK-MEL-28 melanoma
MCF7 breast = test system: MCF7 breast
786-0 renal = test system: 786-0 renal
SNB-19 CNS = test system: SNB-19 CNS
MDA-MB-231 breast = test system: MDA-MB-231 breast

Structure (SMILES) | GI50 (IGROV1 ovarian) [µM] | TGI (IGROV1 ovarian) [µM] | GI50 (NCI/ADR-RES ovarian) [µM] | TGI (NCI/ADR-RES ovarian) [µM] | GI50 (OVCAR-4 ovarian) [µM] | TGI (OVCAR-4 ovarian) [µM] | GI50 (UO-31 renal) [µM] | TGI (UO-31 renal) [µM] | GI50 (OVCAR-5 ovarian) [µM] | TGI (OVCAR-5 ovarian) [µM] | GI50 (SK-MEL-28 melanoma) [µM] | TGI (SK-MEL-28 melanoma) [µM] | GI50 (MCF7 breast) [µM] | TGI (MCF7 breast) [µM] | GI50 (786-0 renal) [µM] | TGI (786-0 renal) [µM] | GI50 (SNB-19 CNS) [µM] | TGI (SNB-19 CNS) [µM] | GI50 (MDA-MB-231 breast) [µM] | TGI (MDA-MB-231 breast) [µM]
CN1CCN(c2ccc(-c3cnc4c(-c5csc6ccccc56)cnn4c3)cc2)CC1 | 7.55 | > 15 | 6.2 | > 15 | 11.2 | > 15 | 10.3 | > 15 | > 15 | > 15 | > 15 | > 15 | 2.58 | > 15 | 4.35 | 12.3 | 9.25 | > 15 | 4.88 | 14.7
O=C(Oc1ccc([N+](=O)[O-])cc1)N1CCN(Cc2cccc(Oc3ccccc3)c2)CC1 | > 100 | > 100 | > 100 | > 100 | > 44.8 | > 100 | 8.17 | > 100 | > 100 | > 100 | > 100 | > 100 | 37.1 | > 100 | > 100 | > 100 | > 100 | > 100 | > 100 | > 100
Cc1cc(=O)oc2cc(OC(=O)Nc3ccc(Cl)c(Cl)c3)ccc12 |  | 60.5 |  | > 100 |  | > 100 |  | 72.7 |  | 61.9 |  | 67.3 |  | > 100 |  | > 100 |  | 77.2 |  | 58
Cc1cc(S(=O)(=O)Nc2nc3ccsc3c(=O)n2Cc2ccco2)c(S)cc1Cl | > 100 | > 100 | > 100 | > 100 | > 100 | > 100 | > 100 | > 100 | > 100 | > 100 | > 100 | > 100 | > 100 | > 100 | > 100 | > 100 | 99 | > 100 | > 100 | > 100
Cc1ccc(S(=O)(=O)Oc2ccc3c4c(c(=O)oc3c2)CCCCC4)cc1 | > 100 | > 100 | 6.76 | > 100 | 7.11 | > 100 | > 100 | > 100 | > 100 | > 100 | > 100 | > 100 | 9.16 | > 100 | > 100 | > 100 | > 100 | > 100 | > 100 | > 100
O=S(=O)(NC(=S)Nc1ccccc1)c1ccc(N2N=C3c4ccccc4CC3C2c2cccs2)cc1 (stereo unspecified) | 65.3 | > 100 | 19.3 | 44.5 | 69.8 | > 100 | 51.2 | > 100 | 17.9 | 41.1 | 53.8 | > 100 | 3.7 | > 100 | 19.7 | 40.4 | 33.8 | > 100 | 24.8 | 62.3
CS(=O)(=O)N1CCN(Cc2cc3nc(-c4cccc5[nH]ncc45)nc(N4CCOCC4)c3s2)CC1 (tested in a mixture with another compound) | 0.0324 | 0.188 | 0.284 |  | 0.514 |  | 0.0493 | 0.292 | 0.134 |  | 0.21 |  | 0.0509 |  | 0.037 | 0.148 | 0.328 |  | 1.49 | > 100
O=C1C=CC(=O)C1(Br)Br |  | 13.7 |  | 68.3 |  | 33.2 |  | 18.7 |  | 25.3 |  | 21.8 |  | 34.6 |  | 23.8 |  | 31.8 |  | 23.1
COc1ncc(-c2nc3c(n2C(C)C)[C@H](c2ccc(Cl)cc2)N(c2cc(Cl)cn(C)c2=O)C3=O)c(OC)n1 | 22.1 | > 100 | 44 | > 100 | 29.2 | > 100 | 5.83 | 88.8 | > 100 | > 100 | 42.2 | > 100 | 17.3 | > 100 | 67.5 | > 100 | 61.5 | > 100 | 29.6 | > 100
CC(CN)[C@@H]1CC[C@]2(CO)CC[C@]3(C)[C@H](CC[C@@H]4[C@@]5(C)CCC(NCCO)C(C)(C)[C@@H]5CC[C@]43C)[C@@H]12 (stereo partly specified) | 4.79 | 19.2 | 6.83 | 22.2 | 2.7 | 9.09 | 2.43 | 9.57 | 2.11 | 5 | 1.87 | 3.43 | 1.78 | 3.62 | 1.55 | 3 | 1.8 | 3.54 | 1.38 | 2.86
Nc1nc2ccc([C@@H]3Nc4ccc5[nH]ncc5c4[C@H]4[C@H]5CCC(C5)[C@H]43)cc2s1 | 1 | 9.84 | 0.966 | 4 | 2.2 | 6.05 | 1.78 | 12.2 | 1.83 | 4.41 | 1.36 | 4.29 | 0.412 | 1.73 | 1.4 | 10 | 1.3 | 11 | 1.29 | 11.6
COc1cc2c3c(n(CCCN)c(=O)c2cc1OC)-c1ccc(F)cc1C3=O | 1.82 | 7.68 | 10.6 | 25.2 | 6.04 | 21.2 | 8.15 | 23.7 | 10.4 | 22.7 | 12.6 | 26.9 | 0.618 | 7.25 | 1.34 | 2.7 | 1.47 | 15.9 | 12.8 | 26.3
CC[C@@]1(O)C(=O)OCc2c1cc1n(c2=O)Cc2cc3cc(OC)ccc3nc2-1 |  | 0.945 | 0.0204 | 0.169 | 0.682 |  | 0.249 |  | 0.643 | 0.562 | 0.894 |  |  | 0.196 | 0.0159 |  |  | 4.19 | 0.735 | 
O=C1C(Cl)=C(Nc2ccc3cn[nH]c3c2)C(=O)c2ccccc21 | 0.198 | 2.02 | 1.62 | 3.42 | 1.31 | 2.58 | 1.25 | 2.51 | 1.8 | 3.21 | 1.65 | 3.01 | 1.09 | 2.58 | 1.81 | 3.21 | 1.66 | 3.33 | 1.41 | 2.73
CN(C)CCNC(=O)c1cccc2cc3ccccc3nc12 | 1.47 | > 22 | 1.55 | 5.83 | 2.11 | 4.99 | 1.11 | 4.06 | 2.27 | > 24.3 | 1.97 | 4.41 | 0.612 | 11.4 | 1.52 | 8.64 | 2.21 | > 21.6 | 2.35 | 9.65
C=C1C(=O)O[C@H]2[C@H]1CC/C(COC(=O)C(=O)c1c[nH]c3ccc(OC)cc13)=C\CC[C@@]1(C)O[C@@H]21 | 3.22 | 7.64 | 9.53 | 29.6 | 6.93 | 21.4 | 4.6 | 7.91 | 7.11 | 14.1 | 5.05 | 9.55 | 3.69 | 16.9 | 5.37 | 9.91 | 8.97 | 19.6 | 6.27 | 12
CCCCCCCCOc1ccc(/C=N/Nc2cc(C)nc3ccc(Cl)cc23)cc1 | 1.84 | 3.67 | 1.97 | 4.07 | 1.82 | 3.55 | 1.55 | 2.93 | 1.79 | 3.2 | 1.78 | 3.2 | 1.94 | 3.91 | 1.86 | 3.66 | 2 | 3.83 | 1.81 | 3.47
Nc1nc2c(c3ncccc13)C(c1cccc(Cl)c1)Cc1ncccc1-2 (stereo unspecified) | 5.36 | > 100 | 0.959 | 7.5 | 5.14 | 40.5 | 3.98 | 34.9 | 6.42 | > 100 | 8.17 | 28.4 | 0.514 | 17.6 | 3.99 | 26.5 | 2.5 | 17.7 | 4.19 | 23.7
COc1cc2c3c(n(CCN)c(=O)c2cc1OC)-c1cc2c(cc1C3=O)OCO2 | 1.53 | 4.74 | 0.152 | 0.808 | 1.43 | 3.02 | 0.226 | 1.91 | 1.95 | 3.74 | 1.55 | 3.44 | 0.0832 | 2.98 | 0.14 | 0.502 | 1.5 | > 100 | 0.255 | 0.84
N#Cc1c[nH]n2ccnc12 |  | > 100 |  | > 100 |  | > 100 |  | > 100 |  | > 100 |  | > 100 |  | > 100 |  | > 100 |  | > 100 |  | > 100
O=C1c2cccnc2-c2nc(/C=C/c3ccccc3)cc3c2c1nc1ccccc13 | 1.59 | 4.44 | 6.35 | 42.1 | 3.77 | 10.5 | 2.01 | 6.5 | 11.8 | 25.4 | 2.3 | 4.18 | 0.899 | 5.01 | 2.26 | 6.48 | 2.51 | 6.13 | 6.95 | > 80.8
